# In PMC11434480, “Discovery and Optimization of Ergosterol Peroxide Derivatives as Novel Glutaminase 1 Inhibitors for the Treatment of Triple-Negative Breast Cancer” (Molecules, 2024):
# Experiments:
# Format in all cases: cell-based, human
# [1] = system: HepG2; assay: MTT antiproliferative assay, HepG2; conditions: Homo sapiens, HepG2, 48 h, mean of three experiments ± SD
# Description: (§1) The in vitro antiproliferative activity of the novel EP derivatives (1a–h, 2a–h, 3a–h, and 4a–h) was evaluated on four different human cancer cell lines (A549, HepG2, MCF-7, and MDA-MB-231) using an MTT assay.
# (§2) Cells containing 10% fetal bovine serum (FBS; WISENT, Nanjing, China) were cultured in an L-15 culture medium (L-15, BOSTER, Wuhan, China) in an incubator at 37 °C. The cells were then inoculated into 96-well plates at a density of 5 × 10^3/well, cultured in 100 μL L-15 medium for 24 h, and incubated with the compound to be tested for 48 h. Next, 20 μL of MTT (5 mg/mL) solution was added and incubated at 37 °C for 4 h away from light. A resorption culture medium was then supplemented with 150 μL DMSO per well. The absorbance was measured at 570 nm using an enzymometer (SAFIRE2, Tecan, Swiss Confederation, Männedorf, Switzerland). The cytotoxic activity was presented in terms of half the inhibition rate.
# [2] = system: A549; assay: MTT antiproliferative assay, A549; conditions: Homo sapiens, A549, 48 h, mean of three experiments ± SD
# Description: as §1, §2
# [3] = system: MDA-MB-231; assay: MTT antiproliferative assay, MDA-MB-231; conditions: Homo sapiens, MDA-MB-231; MTT, 48 h, mean of three experiments ± SD
# Description: as §1, §2
# [4] = system: MCF-7; assay: MTT antiproliferative assay, MCF-7; conditions: Homo sapiens, MCF7, 48 h, mean of three experiments ± SD
# Description: as §1, §2
Compound,IC50 [1] [µM],IC50 [2] [µM],IC50 [3] [µM],IC50 [4] [µM]
"CC(C)C(C)C=CC(C)C1CCC2C1(C)CCC1C23C=CC2(CC(OC(=O)CCCC(=O)Nc4ccc5ccccc5c4)CCC12C)OO3 (centres unmarked) [Compound 3h, Ergosterol peroxide-3-(5-(naphthalen-2-ylamino)-5-oxopentanoate)]",13.8 ± 1.3,9.3 ± 0.66,4.98 ± 0.84,8.65 ± 0.73
"CC(C)C(C)C=CC(C)C1CCC2C1(C)CCC1C23C=CC2(CC(OC(=O)c4ccccc4C(=O)Nc4nccs4)CCC12C)OO3 (centres unmarked) [Compound 4b, Ergosterol peroxide-3-(2-oxo-5-((thiazol-2-yl)carbamoyl)benzoate)]",11 ± 0.76,12.8 ± 1.08,15.8 ± 1.26,12.6 ± 0.94
"CC(C)C(C)C=CC(C)C1CCC2C1(C)CCC1C23C=CC2(CC(OC(=O)CCCC(=O)Nc4nc5ccc(F)cc5s4)CCC12C)OO3 (centres unmarked) [Compound 3d, Ergosterol peroxide-3-(5-((6-fluorobenzo[d]thiazol-2-yl)amino)-5-oxopentanoate)]",14.7 ± 0.35,9.09 ± 0.64,10.8 ± 0.53,8.39 ± 0.34
"CC(C)C(C)C=CC(C)C1CCC2C1(C)CCC1C23C=CC2(CC(OC(=O)CCCC(=O)Nc4ccccc4)CCC12C)OO3 (centres unmarked) [Compound 3e, Ergosterol peroxide-3-(5-oxo-5-(phenylamino)pentanoate)]",14.9 ± 1.13,10.5 ± 0.79,4.78 ± 0.41,11.6 ± 0.66
"CC(C)C(C)C=CC(C)C1CCC2C1(C)CCC1C23C=CC2(CC(OC(=O)c4ccccc4C(=O)Nc4nc5ccc(F)cc5s4)CCC12C)OO3 (centres unmarked) [Compound 4d, Ergosterol peroxide-3-(2-((6-fluorobenzo[d]thiazol-2-yl)carbamoyl)benzoate)]",15.3 ± 1.31,8.99 ± 0.81,11.3 ± 0.44,10.6 ± 0.52
"CC(C)C(C)C=CC(C)C1CCC2C1(C)CCC1C23C=CC2(CC(OC(=O)CCCC(=O)Nc4ccc(F)cc4)CCC12C)OO3 (centres unmarked) [Compound 3f, Ergosterol peroxide-3-(5-((4-fluorophenyl)amino)-5-oxopentanoate)]",9.79 ± 1.01,11.1 ± 0.93,7.19 ± 0.39,8.09 ± 0.71
"CC(C)C(C)C=CC(C)C1CCC2C1(C)CCC1C23C=CC2(CC(OC(=O)c4ccccc4C(=O)Nc4ccc5ccccc5c4)CCC12C)OO3 (centres unmarked) [Compound 4h, Ergosterol peroxide-3-(2-(naphthalen-2-ylcarbamoyl)benzoate)]",14.3 ± 1.55,10.1 ± 1.16,14.6 ± 0.47,11.4 ± 0.42
"CC(C)C(C)C=CC(C)C1CCC2C1(C)CCC1C23C=CC2(CC(OC(=O)CCCC(=O)Nc4nc5cc(F)ccc5s4)CCC12C)OO3 (centres unmarked) [Compound 3c, Ergosterol peroxide-3-(5-((5-fluorobenzo[d]thiazol-2-yl)amino)-5-oxopentanoate)]",11.9 ± 1.07,11.4 ± 0.79,12 ± 0.72,11 ± 0.62
"CC(C)C(C)C=CC(C)C1CCC2C1(C)CCC1C23C=CC2(CC(OC(=O)CCCC(=O)Nc4nncs4)CCC12C)OO3 (centres unmarked) [Compound 3a, Ergosterol peroxide-3-(5-((1,3,4-thiadiazol-2-yl)amino)-5-oxopentanoate)]",10.7 ± 0.82,9.73 ± 0.42,7.06 ± 0.35,5.16 ± 0.93
"CC(C)C(C)C=CC(C)C1CCC2C1(C)CCC1C23C=CC2(CC(OC(=O)c4ccccc4C(=O)Nc4ccc(F)cc4)CCC12C)OO3 (centres unmarked) [Compound 4f, Ergosterol peroxide-3-(2-((4-fluorophenyl)carbamoyl)benzoate)]",9.02 ± 0.87,18.8 ± 0.64,13.4 ± 1.24,9.64 ± 0.51
"CC(C)C(C)C=CC(C)C1CCC2C1(C)CCC1C23C=CC2(CC(OC(=O)CCCC(=O)Nc4nccs4)CCC12C)OO3 (centres unmarked) [Compound 3b, Ergosterol peroxide-3-(5-oxo-5-(thiazol-2-ylamino)pentanoate)]",13.1 ± 1.22,11.7 ± 0.82,6.92 ± 0.28,9.47 ± 0.75
